Key:
CYP2D6 = CYP2D6 (Homo sapiens, UniProt P10635); assay: CYP450 drug metabolism inhibition, 2D6; type: in vitro ADME; settings: criterion remaining activity >50%
Experimental: (§1) In order to analyze the drug metabolism of PMSA compound, ADME evaluation was requested to the Daegu-Gyeongbuk Advanced Medical industry Promotion Foundation (DGMIF). Metabolic stability of drugs using liver microsomes (microsomal stability), drug metabolism inhibitory ability by five CYP450 enzymes, plasma metabolism (plasma stability), plasma protein binding, and intestinal permeability of drugs (PAMPA, parallel artificial membrane permeability assay) were analyzed. […] Further, it was confirmed that the permeability resistance was excellent (see Table 3 below). On the other hand, for one of PMSA derivatives, that is, 2-(N-(3,5-dimethylphenyl)methylsulfinamido)-N-(2 (phenylthio)phenyl)propanamide (#25-D5), intestinal permeability of the drug (PAMPA) was not measured.

CYP1A2 = molecular target: T1, CYP1A2 (Homo sapiens, UniProt P05177); assay: CYP450 drug metabolism inhibition, 1A2; type: in vitro ADME; settings: criterion remaining activity >50%
T1 sequence (P05177 1-516): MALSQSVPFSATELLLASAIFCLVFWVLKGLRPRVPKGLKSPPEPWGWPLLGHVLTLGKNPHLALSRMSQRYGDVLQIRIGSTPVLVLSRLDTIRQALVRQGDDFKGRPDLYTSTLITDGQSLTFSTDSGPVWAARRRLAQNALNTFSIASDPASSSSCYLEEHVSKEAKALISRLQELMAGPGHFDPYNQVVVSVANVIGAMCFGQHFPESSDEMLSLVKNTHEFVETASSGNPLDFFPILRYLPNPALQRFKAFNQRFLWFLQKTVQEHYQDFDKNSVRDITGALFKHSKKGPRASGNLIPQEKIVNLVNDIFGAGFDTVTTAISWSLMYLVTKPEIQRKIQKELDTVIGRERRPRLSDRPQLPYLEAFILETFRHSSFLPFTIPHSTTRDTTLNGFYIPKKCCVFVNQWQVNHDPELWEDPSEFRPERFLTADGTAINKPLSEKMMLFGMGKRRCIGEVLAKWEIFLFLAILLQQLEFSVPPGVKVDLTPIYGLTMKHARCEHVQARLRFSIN
Experimental: as §1

[1] = ADME evaluation (DGMIF), overall conclusion on toxicity; type: in vitro ADME; settings: conclusion from ADME evaluation
Experimental: as §1

[2] = PAMPA, parallel artificial membrane permeability assay; type: in vitro ADME; settings: for Papp: PAMPA, criterion >40, read-out: PAMPA (>40) Pe; for permeability resistance: conclusion from ADME evaluation
Experimental: as §1

NFATc1 = assay: Intranuclear migration of transcription factors, western blotting of nuclear and cytoplasmic proteins; type: cell-based, mouse; settings: osteoclasts differentiated by RANKL for 3 days
From the text: In order to further confirm the inhibitory effect of the PMSA compound on osteoclast differentiation, the intranuclear migration of transcription factors NFATc1 and NF-kB and the expression degree of osteoclast-specific genes regulated by the transcription factors were investigated.
First, in order to confirm the intranuclear migration of transcription factors, osteoclasts differentiated by RANKL for 3 days were separated into nuclear protein and cytoplasmic protein using a NE-PER kit (ThermoFisher scientific 78833). Then, the expression of each of NFATc1 and NF-kB in each organelle was investigated through western blotting.

CYP3A4 = CYP3A4 (Homo sapiens, UniProt P08684); assay: CYP450 drug metabolism inhibition, 3A4; type: in vitro ADME; settings: for CYP 3A4 remaining activity: criterion remaining activity >50%
Chain of CYP3A4 (P08684 whole entry): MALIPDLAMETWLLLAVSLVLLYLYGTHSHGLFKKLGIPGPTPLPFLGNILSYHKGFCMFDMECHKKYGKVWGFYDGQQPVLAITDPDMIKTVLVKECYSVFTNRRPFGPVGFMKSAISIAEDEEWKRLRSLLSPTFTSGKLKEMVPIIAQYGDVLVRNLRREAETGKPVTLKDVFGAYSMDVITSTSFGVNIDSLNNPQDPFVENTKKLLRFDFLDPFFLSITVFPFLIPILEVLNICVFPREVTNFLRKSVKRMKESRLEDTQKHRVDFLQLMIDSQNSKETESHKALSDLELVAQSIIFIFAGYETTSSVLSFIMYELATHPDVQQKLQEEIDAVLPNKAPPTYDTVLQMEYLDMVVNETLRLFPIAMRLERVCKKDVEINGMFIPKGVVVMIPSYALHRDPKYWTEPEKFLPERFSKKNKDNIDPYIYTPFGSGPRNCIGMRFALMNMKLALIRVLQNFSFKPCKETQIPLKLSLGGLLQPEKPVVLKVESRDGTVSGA
Experimental: as §1

mouse bone marrow cells = assay: Bone resorption assay on calcium phosphate coated plate; type: cell-based; settings: 6 days; for decrease in bone resorption ability: compared to differentiated osteoclasts (Ctrl) not treated, fluorescence absorbance
Experimental: Bone resorption ability was confirmed using a bone resorption assay kit (Cosmo Rio, CSR-BRA). 2.5×10^4 mouse bone marrow cells per well were put into a 48-well plate coated with calcium phosphate, followed by treating the cells with PMSA to perform differentiation for 6 days. After 6 days, a fluorescence absorbance was measured with the culture medium to confirm the bone absorption ability. Further, decomposition degree of calcium phosphate was photographed a microscope to confirm the bone resorption ability. […] In FIG. 4, BMMs refer to monocytes that are not differentiated osteoclasts.
Further, the bone resorption ability was confirmed using a bone resorption assay kit (Cosmo Bio, CSR-BRA). 2.5×10^4 mouse bone marrow cells per well were put into a 48-well plate coated with calcium phosphate, and were differentiated for 6 days while being treated with PSTP-3,5-Me. After 6 days, the fluorescence absorbance was measured with the culture medium to confirm the bone absorption ability.

[3] = system: osteoclast-specific genes (CatK, NFATc1, DC-STAMP, OC-STAMP, Acp5); assay: qRT-PCR of osteoclast-specific gene mRNA expression; type: cell-based, mouse; settings: for mRNA expression of DC-STAMP / mRNA expression of OC-STAMP / mRNA expression of cathepsin K (CtsK): day 3 of differentiation, compared to control (Ctrl) without PMSA treatment
Experimental: Further, in order to confirm the expression degree of the osteoclast-specific gene, an mRNA expression level was measured by RT-PCR in the PMSA compound-treated cells. RNA was isolated from the cells differentiated into osteoclasts using an RNeasy kit (Qiagen, 74106), quantified using a spectrophotometer, followed by synthesizing 0.5 μg of RNA using reverse transcriptase (Takara, RR037 A). The synthesized cDNA was subjected to qRT-PCR with a QuantStudio 3 real-time PCR system (Applied Biosystems) using Power SYBR Green […] (Applied Biosystems).
All qPCR experiments were performed in duplicate, and 18S was used as a control. The ddCT method was used for data analysis.
In order to further confirm the inhibitory effect of PSTP-3,5-Me on osteoclast differentiation, the expression levels genes related to osteoclast production were investigated. mRNA expression of specific markers associated with osteoclast production was measured by RT-PCR in 0 or 6 μM PSTP-3,5-Me-treated cells.
For qRT-PCR, total RNA was extracted from BMMs using a TRIzol reagent (Thermo Fisher Scientific, MA, USA). Complementary DNA was synthesized from the total RNA using a Verso cDNA synthesis kit (Thermo Fisher Scientific, MA, USA). Thereafter, quantitative PCR (qPCR) was performed using the QuantStudio 3 real-time PCR system (Applied Biosystems, CA, USA) together with Power SYBR Green PCR Master Mm (Applied Biosystems, CA, USA).

Microsomal stability (M) = type: in vitro ADME, mouse; settings: M of H/M; criterion >60%
Experimental: as §1

plasma proteins = assay: Plasma protein binding (PPB); type: in vitro ADME, Human; settings: for binding with plasma proteins: conclusion from ADME evaluation
Experimental: as §1

[4] = 6 μM compared to control (0 μM)

Chain of CYP2D6 (P10635 whole entry): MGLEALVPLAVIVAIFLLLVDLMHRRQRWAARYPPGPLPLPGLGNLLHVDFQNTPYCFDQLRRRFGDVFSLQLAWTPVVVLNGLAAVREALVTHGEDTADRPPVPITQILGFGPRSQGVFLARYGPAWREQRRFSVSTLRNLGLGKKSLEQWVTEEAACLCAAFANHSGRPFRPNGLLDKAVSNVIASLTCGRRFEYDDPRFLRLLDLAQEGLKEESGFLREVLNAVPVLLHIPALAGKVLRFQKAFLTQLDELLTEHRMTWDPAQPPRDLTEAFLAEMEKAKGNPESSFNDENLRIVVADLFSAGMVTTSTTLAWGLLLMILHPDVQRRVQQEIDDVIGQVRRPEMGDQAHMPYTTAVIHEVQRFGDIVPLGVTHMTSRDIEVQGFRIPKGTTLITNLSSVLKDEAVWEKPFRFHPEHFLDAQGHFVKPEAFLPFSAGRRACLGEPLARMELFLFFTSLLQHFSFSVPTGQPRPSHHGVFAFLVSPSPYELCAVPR

Structure (SMILES)	CYP 2D6 remaining activity (CYP2D6) [%]	CYP 1A2 remaining activity (CYP1A2) [%]	toxicity [1]	Papp [2] [×10⁻⁶ cm/s]	permeability resistance [2]	NFATc1 expression in the nucleus (NFATc1)	CYP 3A4 remaining activity (CYP3A4) [%]	decrease in bone resorption ability (mouse bone marrow cells) [%]	mRNA expression of DC-STAMP [3]	mRNA expression of OC-STAMP [3]	mRNA expression of cathepsin K (CtsK) [3]	Microsomal stability (>60%) M (Microsomal stability (M)) [%]	PPB Human (%, bound) (plasma proteins)	binding with plasma proteins (plasma proteins)	other results
CC(=O)c1cccc(N(CC(=O)Nc2ccccc2Sc2ccccc2)S(C)(=O)=O)c1 [#25, 2-(N-(3-acetylphenyl)methylsulfonamido)-N-(2-(phenylthio)phenyl)acetamide]	80.4	85.7	low toxicity	59.4 ± 1.6	excellent	less expressed in the nucleus	53.3	16	decrease	decrease	decrease	8.0	98.4 %, bound	good	
Cc1cc(C)cc(N([C@@H](C)C(=O)Nc2ccccc2Sc2ccccc2)S(C)(=O)=O)c1 [#25-D5, N^2-(3,5-dimethylphenyl)-N^2-(methylsulfonyl)-N-[2-(phenylthio)phenyl]alanineamide]	87.3	85.1					13.4					14.7	99.8 %, bound		utility as a drug such as influence on activity of CYP3A4 (CYP3A4; compared with other derivatives): not higher than other derivatives; bone resorption region (optical microscope) (mouse bone marrow cells): not largely shown; bone resorption ability (fluorescence intensity) (mouse bone marrow cells; RANKL, 0, 3 or 10 μM): significantly decreased in a dose-dependent manner; Acp5 expression level [3, 4]: slightly decreased; CatK expression degree [3, 4]: significantly decreased; DC-STAMP expression level [3, 4]: decreased on day 1; NFATc1 expression degree [3, 4]: significantly decreased; OC-STAMP expression level [3, 4]: decreased on day 1
COc1ccc(Cl)cc1N(CC(=O)Nc1ccccc1Sc1ccccc1)S(C)(=O)=O [#25-D12, 2-(N-(5-chloro-2-methoxyphenyl)methylsulfonamido)-N-(2-(phenylthio)phenyl)acetamide]	85.5	77.9	low toxicity	49 ± 2	excellent	less expressed in the nucleus	26	12.5	decrease	decrease	decrease	21.7	99.8 %, bound	good	
